This passage reports mutagenic call results from PubChem BioAssay AID1259407 (Chemical Carcinogenesis Research Information System (CCRIS), 2018).

In the data set the test system is CCRIS mutagenicity, Ames/micronucleus/aberration tests. Nature of the data set: CCRIS mutagenicity studies.
Where [1] appears, read: Test System: AMES SALMONELLA TYPHIMURIUM, Strain/Indicator: TA98, Metabolic Activation: NONE, Method: STANDARD PLATE.
[2] abbreviates: Test System: AMES SALMONELLA TYPHIMURIUM, Strain/Indicator: TA100, Metabolic Activation: NONE, Method: STANDARD PLATE.
[3] abbreviates: Test System: MOUSE LYMPHOMA, Strain/Indicator: L5178Y (TK+/TK-), Metabolic Activation: NONE, Method: SUSPENSION/PLATE.
Setting [4] is: Test System: MOUSE LYMPHOMA, Strain/Indicator: L5178Y (TK+/TK-), Metabolic Activation: RAT, LIVER, S-9, AROCLOR 1254, Method: SUSPENSION/PLATE.

Calls of active or inactive are those of the source. The rule behind the calls is not given here.

For `CCCCC1C(=O)N(c2ccccc2)N(c2ccccc2)C1=O`, the mutagenic call reads like this: (End Point: IN VITRO CHROMOSOMAL ABERRATIONS, Test System: CHINESE HAMSTER OVARY CELLS, Metabolic Activation: NONE) “inactive; negative”; (End Point: IN VITRO CHROMOSOMAL ABERRATIONS, Test System: CHINESE HAMSTER OVARY CELLS, Metabolic Activation: RAT, LIVER, S-9, AROCLOR 1254) “active; positive”; (Test System: AMES SALMONELLA TYPHIMURIUM, Strain/Indicator: TA97A, Metabolic Activation: NONE, Method: STANDARD PLATE) “inactive; negative”; (Test System: AMES SALMONELLA TYPHIMURIUM, Strain/Indicator: TA97A, Metabolic Activation: RAT LIVER S-9, PHENOBARBITAL, Method: STANDARD PLATE) “inactive; negative”; (Test System: AMES SALMONELLA TYPHIMURIUM, Strain/Indicator: TA98, Metabolic Activation: HAMSTER, LIVER, S-9, AROCLOR 1254, Method: PREINCUBATION) “inactive; negative”; (Test System: AMES SALMONELLA TYPHIMURIUM, Strain/Indicator: TA98, Metabolic Activation: NONE, Method: PREINCUBATION) “inactive; negative”. Moreover, the mutagenic call was “inactive; negative” under setting [1]; “inactive; negative” (Test System: AMES SALMONELLA TYPHIMURIUM, Strain/Indicator: TA98, Metabolic Activation: RAT LIVER S-9, PHENOBARBITAL, Method: STANDARD PLATE); “inactive; negative” (Test System: AMES SALMONELLA TYPHIMURIUM, Strain/Indicator: TA98, Metabolic Activation: RAT, LIVER, S-9, AROCLOR 1254, Method: PREINCUBATION); “inactive; negative” (Test System: AMES SALMONELLA TYPHIMURIUM, Strain/Indicator: TA100, Metabolic Activation: HAMSTER, LIVER, S-9, AROCLOR 1254, Method: PREINCUBATION); “inactive; negative” (Test System: AMES SALMONELLA TYPHIMURIUM, Strain/Indicator: TA100, Metabolic Activation: NONE, Method: PREINCUBATION); “inactive; negative” under setting [2]. The mutagenic call runs as follows: (Test System: AMES SALMONELLA TYPHIMURIUM, Strain/Indicator: TA100, Metabolic Activation: RAT LIVER S-9 PHENOBARBITAL, Method: STANDARD PLATE) “inactive; negative”; (Test System: AMES SALMONELLA TYPHIMURIUM, Strain/Indicator: TA100, Metabolic Activation: RAT, LIVER, S-9, AROCLOR 1254, Method: PREINCUBATION) “inactive; negative”; (Test System: AMES SALMONELLA TYPHIMURIUM, Strain/Indicator: TA102, Metabolic Activation: NONE, Method: STANDARD PLATE) “inactive; negative”; (Test System: AMES SALMONELLA TYPHIMURIUM, Strain/Indicator: TA102, Metabolic Activation: RAT LIVER S-9, PHENOBARBITAL, Method: STANDARD PLATE) “inactive; negative”; (Test System: AMES SALMONELLA TYPHIMURIUM, Strain/Indicator: TA1535, Metabolic Activation: HAMSTER, LIVER, S-9, AROCLOR 1254, Method: PREINCUBATION) “inactive; negative”; (Test System: AMES SALMONELLA TYPHIMURIUM, Strain/Indicator: TA1535, Metabolic Activation: NONE, Method: PREINCUBATION) “inactive; negative”. The mutagenic call is “inactive; negative” (Test System: AMES SALMONELLA TYPHIMURIUM, Strain/Indicator: TA1535, Metabolic Activation: RAT, LIVER, S-9, AROCLOR 1254, Method: PREINCUBATION); “inactive; negative” (Test System: AMES SALMONELLA TYPHIMURIUM, Strain/Indicator: TA1537, Metabolic Activation: HAMSTER, LIVER, S-9, AROCLOR 1254, Method: PREINCUBATION); “inactive; negative” (Test System: AMES SALMONELLA TYPHIMURIUM, Strain/Indicator: TA1537, Metabolic Activation: NONE, Method: PREINCUBATION); “inactive; negative” (Test System: AMES SALMONELLA TYPHIMURIUM, Strain/Indicator: TA1537, Metabolic Activation: RAT, LIVER, S-9, AROCLOR 1254, Method: PREINCUBATION); “active; positive” under setting [3]; “active; positive” under setting [4].
For the molecule `C=C[Si](C)(Cl)Cl`, the mutagenic call was “inactive; negative” (Test System: AMES SALMONELLA TYPHIMURIUM, Strain/Indicator: TA98, Metabolic Activation: HAMSTER, LIVER, S-9, AROCLOR 1254 (10%), Method: STANDARD PLATE); “inactive; negative” under setting [1]; “inactive; negative” (Test System: AMES SALMONELLA TYPHIMURIUM, Strain/Indicator: TA98, Metabolic Activation: RAT, LIVER, S-9, AROCLOR 1254 (10%), Method: STANDARD PLATE); “inactive; negative” (Test System: AMES SALMONELLA TYPHIMURIUM, Strain/Indicator: TA100, Metabolic Activation: HAMSTER, LIVER, S-9, AROCLOR 1254 (10%), Method: STANDARD PLATE); “inactive; negative” under setting [2]; “inactive; negative” (Test System: AMES SALMONELLA TYPHIMURIUM, Strain/Indicator: TA100, Metabolic Activation: RAT, LIVER, S-9, AROCLOR 1254 (10%), Method: STANDARD PLATE). Further, the mutagenic call was “active; positive” (Test System: AMES SALMONELLA TYPHIMURIUM, Strain/Indicator: TA1535, Metabolic Activation: HAMSTER, LIVER, S-9, AROCLOR 1254 (10%), Method: STANDARD PLATE); “inactive; negative” (Test System: AMES SALMONELLA TYPHIMURIUM, Strain/Indicator: TA1535, Metabolic Activation: NONE, Method: STANDARD PLATE); “inactive; negative” (Test System: AMES SALMONELLA TYPHIMURIUM, Strain/Indicator: TA1535, Metabolic Activation: RAT, LIVER, S-9, AROCLOR 1254 (10%), Method: STANDARD PLATE); “inactive; negative” (Test System: AMES SALMONELLA TYPHIMURIUM, Strain/Indicator: TA1537, Metabolic Activation: HAMSTER, LIVER, S-9, AROCLOR 1254 (10%), Method: STANDARD PLATE); “inactive; negative” (Test System: AMES SALMONELLA TYPHIMURIUM, Strain/Indicator: TA1537, Metabolic Activation: NONE, Method: STANDARD PLATE); “inactive; negative” (Test System: AMES SALMONELLA TYPHIMURIUM, Strain/Indicator: TA1537, Metabolic Activation: RAT, LIVER, S-9, AROCLOR 1254 (10%), Method: STANDARD PLATE). Also, the mutagenic call is, setting by setting: (Test System: AMES SALMONELLA TYPHIMURIUM, Strain/Indicator: TA1538, Metabolic Activation: HAMSTER, LIVER, S-9, AROCLOR 1254 (10%), Method: STANDARD PLATE) “inactive; negative”; (Test System: AMES SALMONELLA TYPHIMURIUM, Strain/Indicator: TA1538, Metabolic Activation: NONE, Method: STANDARD PLATE) “inactive; negative”; (Test System: AMES SALMONELLA TYPHIMURIUM, Strain/Indicator: TA1538, Metabolic Activation: RAT, LIVER, S-9, AROCLOR 1254 (10%), Method: STANDARD PLATE) “inactive; negative”; under setting [3], “inactive; negative. reevaluation of results: negative”; under setting [4], “inactive; negative. reevaluation of results: inconclusive”.
